{
  "source": "patent US10363239B2",
  "about": "“Method for inhibiting growth of cancer cells” (Pain Therapeutics, Inc., priority 2013, dated 2019)",
  "settings_in_all_cases": "0.1-5 nM; 4 days",
  "key": {"[1]": {"system": "primary human mammary epithelial cells (HMECs)", "test": "Cell proliferation by cell-cycling markers Ki67 and PCNA (Western blots)", "format": "cell-based", "protocol": "The effect of contact with Compound C0105 on cell proliferation was determined by the levels of cell-cycling markers: Ki67 and PCNA using Western blots in HTB-22 and control human mammary epithelial cells (HMECs). Cells treated with vehicle and 0.1-5 nM Compound C0105 for 4 days were collected, washed and solubilized. The resultant cell lysates were size-fractionated on SDS-PAGE and Western blotting to determine the levels of Ki67, PCNA and actin (loading control). The protein bands were quantified using densitometric scanning.\nThe effect of C0105 on cell proliferation was determined by the levels of cell-cycling markers Ki67 and PCNA using Western blots in HTB-22 and control HMECs. Cells contacted with vehicle and 0.1-5 nM Compound C0105 for 4 days were collected, washed and solubilized. […] The protein bands were quantified using densitometric scanning. […]\nTo study the effect of Compound C0105 on PI3K activity, the cancer and primary normal cells were cultured to approximately 60-70% confluency, serum deprived for 4 hours, briefly washed with PBS and treated with vehicle or 0.1, 0.5, 1 or 5 nM Compound C0105 for 24 hours with in 0.1% FBS-containing culture medium. […] The cell pellets were sonicated in ice-cold immunoprecipitation buffer and protein concentrations measured by the Bradford method. […]"}, "[2]": {"system": "pS2152FLNA, FLNA-associated PTEN and PP2A in glioblastoma cells", "test": "pS2152FLNA and FLNA-associated PTEN and PP2A in anti-FLNA immunoprecipitate (Western blotting)", "format": "cell-based, human", "protocol": "(§1) The effect of Compound C0105 on the levels of pS^2152FLNA and FLNA-associated phosphatases, PTEN and PP2A subclasses was determined in glioblastoma cells. Cells were treated with vehicle and 0.1-5 nM Compound C0105 for 4 days. Cells were washed and solubilized, and the resultant cell lysate was immunoprecipitated with anti-FLNA. The levels of pS^2152FLNA and FLNA-associated phosphatases, PTEN and PP2A subclasses in the anti-FLNA immunoprecipitate were determined by Western blotting. The density of protein bands was quantified by densitometric scan. […] N=4. **p<0.05, *p<0.01 compared to vehicle (open bars). […]\n(§2) The cell lysates were diluted 5-fold with immunoprecipitation buffer and immunoprecipitated with anti-FLNA, -Akt, -mTOR and -ERK2 as described previously [Talbot et al., J Clin Inv 122(4):1-23 (2012); Wang et al., J Neurosci 32(29):9773-9784 (2012)]. The levels of FLNA linkages, activated phosphorylated Akt (pS^473 and pT^308), phosphorylated mTOR (pS^2448) and phosphorylated ERK2 (pY/pT) were determined in anti-FLNA, -Akt, -mTOR and -ERK2 immunoprecipitates by Western blotting with appropriate antibodies directed against PTEN, PP2A, K-RAS, ras-GAP (FLNA linkages), pS^473Akt, pT^308Akt, pS^2448mTOR and pY/pT ERK2 (activation of Akt, mTOR and ERK2)."}, "[3]": {"system": "pS2152FLNA, FLNA-associated PTEN and PP2A in melanoma cells", "test": "pS2152FLNA and FLNA-associated PTEN and PP2A in anti-FLNA immunoprecipitate (Western blotting)", "format": "cell-based, human", "protocol": "as §1, with “melanoma” for “glioblastoma”, “washed, solubilized” for “washed and solubilized,”, “scanning.” for “scan.”\nas §2"}, "[4]": {"system": "pS2448mTOR, pS473Akt, pY/pT-ERK2 in small-cell lung carcinoma cells", "test": "Activated (phosphorylated) mTOR, Akt and ERK2 levels (immunoprecipitation, Western blotting)", "format": "cell-based, human", "protocol": "(§3) Cells were treated with vehicle and 0.1-5 nM C0105 for 4 days. Cells were washed, solubilized and the resultant cell lysate was immunoprecipitated with anti-mTOR, -Akt or -ERK2. The levels of pS^2448mTOR, pS^473Akt, pY/pTERK2 in the respective anti-mTOR, -Akt, and -ERK2 immunoprecipitates were determined by Western blotting. […] The density of protein bands was measured by densitometric scanning. […] N=4. *p<0.01 compared to vehicle (open bars). […]\nas §2"}, "[5]": {"system": "pS2448mTOR, pS473Akt, pY/pT-ERK2 in primary lung fibroblast cells", "test": "Activated (phosphorylated) mTOR, Akt and ERK2 levels (immunoprecipitation, Western blotting)", "format": "cell-based, human", "protocol": "as §3, §2"}},
  "data": [
    {"smiles": "CN1CCC2(CC1)NCC(=O)N2Cc1ccccc1", "note": "[Compound C0105]", "values": [
      {"measurement": "Cell proliferation (Ki67 and PCNA levels)", "setting": "[1]", "value": "had no effect"},
      {"measurement": "FLNA-associated PTEN and PP2A levels", "setting": "[2]", "value": "increases FLNA-associated PTEN and PP2A levels"},
      {"measurement": "pS2152FLNA level", "setting": "[2]", "value": "reduces pS^2152FLNA"},
      {"measurement": "FLNA-associated PTEN and PP2A levels", "setting": "[3]", "value": "increases FLNA-associated PTEN and PP2A levels"},
      {"measurement": "pS2152FLNA level", "setting": "[3]", "value": "reduces pS^2152FLNA"},
      {"measurement": "mTOR, Akt and ERK activation (phosphorylated mTOR, Akt and ERK)", "setting": "[4]", "value": "robustly reduces mTOR, Akt and ERK activation"},
      {"measurement": "mTOR, Akt and ERK activation (phosphorylated mTOR, Akt and ERK)", "setting": "[5]", "value": "little effect on mTOR, Akt and ERK activation"}
    ]}
  ]
}
